# How the values were obtained:
# Assay type in all cases: functional, cell-based
# HeLa = test: Cytotoxicity against human HeLa cells after 48 hrs by MTT assay
# [1] = Cytotoxicity against human HL7702 cells after 48 hrs by MTT assay; conditions: L02, 48 h
# NCI-H460 = test: Cytotoxicity against human NCI-H460 cells after 48 hrs by MTT assay; conditions: NCI-H460, 48 h
# MGC-803 = test: Cytotoxicity against human MGC803 cells after 48 hrs by MTT assay; conditions: MGC-803, 48 h
SMILES,IC50 (HeLa),IC50 [1],IC50 (NCI-H460),IC50 (MGC-803)
CC(C)c1ccc2c(c1)/C(=N\O)C[C@H]1[C@](C)(C(=O)N[C@@H](Cc3ccccc3)C(=O)Nc3ccc(Cl)cc3)CCC[C@]21C,101 µM,60.8 µM,102 µM,25.8 µM
CC(C)c1ccc2c(c1)C(=O)C[C@H]1[C@](C)(C(=O)N[C@@H](Cc3ccccc3)C(=O)Nc3ccccc3)CCC[C@]21C,29.1 µM,51.6 µM,29 µM,27.6 µM
CC(C)c1ccc2c(c1)/C(=N\O)C[C@H]1[C@](C)(C(=O)N[C@H](Cc3ccccc3)C(=O)Nc3ccccc3F)CCC[C@]21C,20.8 µM,54.8 µM,42.5 µM,13.4 µM
COc1ccccc1NC(=O)[C@@H](Cc1ccccc1)NC(=O)[C@]1(C)CCC[C@]2(C)c3ccc(C(C)C)cc3/C(=N\O)C[C@@H]12,18.4 µM,57.9 µM,37.1 µM,18.7 µM
CC(C)c1ccc2c(c1)/C(=N\O)C[C@H]1[C@](C)(C(=O)N[C@H](Cc3ccccc3)C(=O)Nc3ccc(Cl)cc3)CCC[C@]21C,20.2 µM,57.9 µM,17.6 µM,17.8 µM
CC(C)c1ccc2c(c1)/C(=N\O)C[C@H]1[C@](C)(C(=O)N[C@@H](Cc3ccccc3)C(=O)Nc3ccccc3F)CCC[C@]21C,34.1 µM,57.5 µM,44.8 µM,17.8 µM
CC(C)c1ccc2c(c1)/C(=N\O)C[C@H]1[C@](C)(C(=O)N[C@H](Cc3ccccc3)C(=O)Nc3ccccc3Cl)CCC[C@]21C,26.6 µM,48.2 µM,26.9 µM,17 µM
CC(C)c1ccc2c(c1)C(=O)C[C@H]1[C@](C)(C(=O)N[C@H](Cc3ccccc3)C(=O)Nc3ccc(F)cc3)CCC[C@]21C,16.3 µM,52.4 µM,34.3 µM,39.6 µM
CC(C)c1ccc2c(c1)C(=O)C[C@H]1[C@](C)(C(=O)N[C@H](Cc3ccccc3)C(=O)Nc3ccc(Cl)cc3)CCC[C@]21C,32.3 µM,76.3 µM,23.4 µM,20.2 µM
COc1ccccc1NC(=O)[C@H](Cc1ccccc1)NC(=O)[C@]1(C)CCC[C@]2(C)c3ccc(C(C)C)cc3/C(=N\O)C[C@@H]12,19.3 µM,58.8 µM,31 µM,11.9 µM
CC(C)c1ccc2c(c1)/C(=N\O)C[C@H]1[C@](C)(C(=O)N[C@@H](Cc3ccccc3)C(=O)Nc3ccccc3)CCC[C@]21C,16 µM,45.9 µM,41.3 µM,16 µM
CC(C)c1ccc2c(c1)/C(=N\O)C[C@H]1[C@](C)(C(=O)N[C@H](Cc3ccccc3)C(=O)Nc3ccc(F)cc3)CCC[C@]21C,20.6 µM,53.8 µM,58.6 µM,17.3 µM
COc1ccc(NC(=O)[C@H](Cc2ccccc2)NC(=O)[C@]2(C)CCC[C@]3(C)c4ccc(C(C)C)cc4/C(=N\O)C[C@@H]23)cc1,10.9 µM,49.6 µM,32 µM,14.6 µM
COc1cc(NC(=O)[C@@H](Cc2ccccc2)NC(=O)[C@]2(C)CCC[C@]3(C)c4ccc(C(C)C)cc4C(=O)C[C@@H]23)cc(OC)c1OC,19.2 µM,57.4 µM,27.9 µM,26.4 µM
COc1cc(NC(=O)[C@H](Cc2ccccc2)NC(=O)[C@]2(C)CCC[C@]3(C)c4ccc(C(C)C)cc4C(=O)C[C@@H]23)cc(OC)c1OC,49.6 µM,69.5 µM,54.6 µM,21.3 µM
CC(C)c1ccc2c(c1)C(=O)C[C@H]1[C@](C)(C(=O)N[C@H](Cc3ccccc3)C(=O)Nc3ccccc3F)CCC[C@]21C,25.9 µM,53.3 µM,61.4 µM,18.9 µM
O=c1[nH]cc(F)c(=O)[nH]1 [FLUOROURACIL],36.5 µM,–,–,30.4 µM
CC(C)c1ccc2c(c1)CC[C@H]1[C@](C)(C(=O)O)CCC[C@]21C [DEHYDROABIETIC ACID],–,–,–,> 100 µM

# Source: ChEMBL document CHEMBL3352110, “Design, synthesis and in vitro evaluation of novel dehydroabietic acid derivatives containing a dipeptide moiety as potential anticancer agents” (Eur J Med Chem, 2015)
